The assay concerns the target T1, orexin-2 receptor (Homo sapiens, UniProt O43614).
T1 construct: expressed in transfected cells; host or cells: CHO-K1 (preferred) or HEK-293 recombinant clones
T1 sequence (O43614 1-444): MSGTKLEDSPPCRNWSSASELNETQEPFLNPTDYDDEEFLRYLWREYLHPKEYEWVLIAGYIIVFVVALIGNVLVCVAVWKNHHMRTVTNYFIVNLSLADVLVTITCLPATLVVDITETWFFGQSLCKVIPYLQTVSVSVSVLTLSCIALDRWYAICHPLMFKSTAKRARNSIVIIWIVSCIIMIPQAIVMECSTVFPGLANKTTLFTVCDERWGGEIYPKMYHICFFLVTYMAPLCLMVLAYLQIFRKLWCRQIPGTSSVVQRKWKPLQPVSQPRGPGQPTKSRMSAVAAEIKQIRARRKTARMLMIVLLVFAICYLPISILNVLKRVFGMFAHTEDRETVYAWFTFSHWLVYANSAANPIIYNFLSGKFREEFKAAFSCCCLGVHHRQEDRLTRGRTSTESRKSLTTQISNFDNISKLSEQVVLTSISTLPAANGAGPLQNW
As to the kind of experiment: Orexin radioligand binding assay (125I-orexin A, adherent recombinant cells). To be noted: 125I-orexin A displacement, recombinant CHO-K1 or HEK-293 cells expressing the orexin receptor. Here is the method: The reaction was quenched with 100 μL of 10% w/v bovine serum albumin, then the products were pre-purified using Waters Maxi-Clean C18 cartridges (Alltech, San Jose, Calif.). The mobile phase for the reverse phase separations (pre-purification and gradient HPLC) was 0.1% TFA, and the eluent was 0.1% TFA in acetonitrile. After removing the acetonitrile from the Maxi-Clean cartridge eluent by lyophilization, the labeled compound was further purified by gradient HPLC using a Vydac (Hesperia, Calif.) analytical C18 HPLC column. A gradient of 2% acetonitrile/min was used and fractions were collected every 0.75 min at a flow rate of 1.5 mL/min.
Radioligand binding assays were performed in opaque, white 96-well tissue culture plates pretreated with poly-D-lysine (Bio-Coat plates, Becton Dickinson, Franklin Lakes, N.J.). Cells expressing the orexin receptor were seeded at 30,000 cells/well in 100 μL/well Ham's F12 with 10% heat inactivated fetal bovine serum, penicillin/streptomycin and 800 mg/L G418. […] In preparation for the binding assay, the cell culture medium was aspirated away, and the cells were gently washed with 100 μL-well binding buffer (Dulbecco's phosphate buffered saline containing 0.1% w/v bovine serum albumin). […] The assay was terminated by aspirating the liquid from the wells, washing the wells with iced binding buffer, aspirating the wells dry, adding 50 μL/well scintillation cocktail (MicroScint 40, Packard Biosciences, Meriden Conn.), and counting the plate(s) in a Packard TopCount scintillation counter. […] Data were analyzed using GraphPad Prizm software to calculate Ki values.

For orientation: Ki means a dissociation constant, usually derived from enzyme kinetics or from competition with a known ligand.

`Cc1ccccc1NC(=O)N[C@H]1COC(C)(C)O[C@H]1c1ccccc1` [Example 32, 1-((4S,5S)-2,2-Dimethyl-4-phenyl-[1,3]dioxan-5-yl)-3-o-tolyl-urea]: the inhibition constant (Ki) amounted to 0.65 µM.

In the case of `CC1(C)OC[C@H](NC(=O)Nc2ccc(Br)cc2)[C@H](c2ccccc2)O1` [Example 36, 1-(4-Bromo-phenyl)-3-((4S,5S)-2,2-dimethyl-4-phenyl-[1,3]dioxan-5-yl)-urea], the Ki came to 1.4 µM.

Turning to `CC1(C)OC[C@H](NC(=O)Nc2ccc(Cl)cc2)[C@H](c2ccccc2)O1` [Example 39, 1-(4-Chloro-phenyl)-3-((4S,5S)-2,2-dimethyl-4-phenyl-[1,3]dioxan-5-yl)-urea], the Ki came to 0.3 µM.

On to `Cc1ccc(Cl)c(NC(=O)N[C@H]2COC(C)(C)O[C@H]2c2ccccc2)c1` [Example 3, 1-(2-Chloro-5-methyl-phenyl)-3-((4S,5S)-2,2-dimethyl-4-phenyl-[1,3]dioxan-5-yl)-urea], for which the Ki was found to be 0.027 µM.

As for `O=C(Nc1ccccc1Br)N[C@H]1COC2(CCCCC2)O[C@H]1c1ccccc1` [Example 26, 1-(2-Bromo-phenyl)-3-((2S,3S)-2-phenyl-1,5-dioxa-spiro[5.5]undec-3-yl)-urea], the Ki came out at 0.98 µM.

`Cc1ccc(NC(=O)N[C@H]2COC(C)(C)O[C@H]2c2ccccc2)c(C)c1` [Example 29, 1-(2,4-Dimethyl-phenyl)-3-((4S,5S)-2,2-dimethyl-4-phenyl-[1,3]dioxan-5-yl)-urea]: the Ki came to 0.2 µM.

As to `Cc1ccc(/N=C(\NC#N)N[C@H]2COC(C)(C)O[C@H]2c2ccccc2)c(Br)c1` [Example 27, N-(2-Bromo-4-methyl-phenyl)-N′-((4S,5S)-2,2-dimethyl-4-phenyl-[1,3]dioxan-5-yl)-N″-cyanoguanidine], the Ki is 1 µM.

The values are drawn from US6951882B2, “Substituted 4-phenyl-[1,3]-dioxanes” (Janssen Pharmaceutica N.V., priority 2002, dated 2005).
